{
  "source": "paper PMC2804746",
  "about": "(Biochemistry, 2008)",
  "key": {"[1]": {"biological_target": "T1, taTrxR (Ta0984) (Thermoplasma acidophilum, UniProt Q9HJI4)", "T1 sequence (Q9HJI4 1-319)": "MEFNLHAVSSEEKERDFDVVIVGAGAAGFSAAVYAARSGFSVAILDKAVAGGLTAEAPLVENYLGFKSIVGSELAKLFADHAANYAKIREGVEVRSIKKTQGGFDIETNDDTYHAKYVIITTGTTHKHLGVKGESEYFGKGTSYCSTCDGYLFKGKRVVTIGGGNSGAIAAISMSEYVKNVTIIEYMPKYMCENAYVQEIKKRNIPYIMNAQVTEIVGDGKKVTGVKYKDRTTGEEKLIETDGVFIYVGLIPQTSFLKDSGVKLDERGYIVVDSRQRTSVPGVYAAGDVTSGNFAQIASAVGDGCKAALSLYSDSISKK", "assay": "X-ray crystal structure, […] Å", "type": "binding", "conditions": "one FAD per monomer, co-purified; crystals at pH 5.5, room temperature"}, "[2]": {"biological_target": "ecTrxR (Escherichia coli, UniProt P0A9P4)", "sequence (P0A9P4 2-321)": "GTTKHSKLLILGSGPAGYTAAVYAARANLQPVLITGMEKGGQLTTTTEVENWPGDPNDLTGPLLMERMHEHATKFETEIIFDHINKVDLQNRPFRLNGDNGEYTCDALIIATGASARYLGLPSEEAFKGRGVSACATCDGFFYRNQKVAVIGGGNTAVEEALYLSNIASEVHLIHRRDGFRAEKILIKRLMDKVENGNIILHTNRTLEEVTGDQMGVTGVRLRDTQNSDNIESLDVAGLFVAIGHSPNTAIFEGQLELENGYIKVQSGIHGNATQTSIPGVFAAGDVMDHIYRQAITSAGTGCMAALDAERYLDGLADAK", "assay": "anaerobic titration, reduction of bound FAD by visible spectra", "type": "biochemical", "conditions": "50 mM TRIS, pH 7.5, 150 mM NaCl, 25 °C"}},
  "data": [
    {"smiles": "Cc1cc2nc3c(=O)[nH]c(=O)nc-3n(C[C@H](O)[C@H](O)[C@H](O)COP(=O)(O)OP(=O)(O)OC[C@H]3O[C@@H](n4cnc5c(N)ncnc54)[C@H](O)[C@@H]3O)c2cc1C", "note": "[FAD]", "values": [
      {"measurement": "X-ray crystal structure, 2.35 Å; visible absorption spectrum", "setting": "[1]", "result": "The taTrxR structure has one FAD molecule bound in a similar conformation as the ecTrxR structure"}
    ]},
    {"smiles": "NC(=O)C1=CN([C@@H]2O[C@H](COP(=O)(O)OP(=O)(O)OC[C@H]3O[C@@H](n4cnc5c(N)ncnc54)[C@H](O)[C@@H]3O)[C@@H](O)[C@H]2O)C=CC1", "note": "[NADH]", "values": [
      {"measurement": "anaerobic titration, reduction of bound FAD by visible spectra", "setting": "[2]", "result": "NADH does reduce the flavin to some extent in this protein"}
    ]},
    {"smiles": "NC(=O)C1=CN([C@@H]2O[C@H](COP(=O)(O)OP(=O)(O)OC[C@H]3O[C@@H](n4cnc5c(N)ncnc54)[C@H](OP(=O)(O)O)[C@@H]3O)[C@@H](O)[C@H]2O)C=CC1", "note": "[NADPH]", "values": [
      {"measurement": "anaerobic titration, reduction of bound FAD by visible spectra", "setting": "[2]", "result": "titration of ecTrxR with NADPH results in a rapid reduction of the bound FAD"}
    ]}
  ]
}
